From ChEMBL document CHEMBL1201862, “PubChem BioAssay data set” (2004)
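Method: 48-hour compound exposure of cells in 96-well plates, five concentrations, linear interpolation of endpoints. GI50: concentration for 50% inhibition of growth.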 Activity calls are given as the source filed them. Rule as the data show it: active = GI50 up to about 1.1 µM and inactive = higher.

Tests used:
Assay in all cases: growth of human tumour cells (NCI), 48 h
[1] = test system: U-251
[2] = test system: SK-OV-3
[3] = test system: ACHN
[4] = test system: RXF 393
[5] = test system: LOX IMVI
[6] = test system: Malme-3M
[7] = test system: MDA-MB-231
[8] = test system: MDA-N
[9] = test system: MOLT-4
[10] = test system: IGROV-1
[11] = test system: HCT-116
[12] = test system: OVCAR-4
[13] = test system: OVCAR-5
[14] = test system: SNB-19
[15] = test system: T47D
[16] = test system: NCI-H460
[17] = test system: NCI/ADR-RES
[18] = test system: SR
[19] = test system: TK-10
[20] = test system: A549

| Compound | GI50 [1] | GI50 [2] | GI50 [3] | GI50 [4] | GI50 [5] | GI50 [6] | GI50 [7] | GI50 [8] | GI50 [9] | GI50 [10] | GI50 [11] | GI50 [12] | GI50 [13] | GI50 [14] | GI50 [15] | GI50 [16] | GI50 [17] | GI50 [18] | GI50 [19] | GI50 [20] |
| --- | --- | --- | --- | --- | --- | --- | --- | --- | --- | --- | --- | --- | --- | --- | --- | --- | --- | --- | --- | --- |
| COc1cc2oc3ccccc3c(=O)c2cc1CSc1ccccc1N | 22.9 µM (inactive) | 28 µM (inactive) | 19.5 µM (inactive) | 11 µM (inactive) | 29.7 µM (inactive) | 18.6 µM (inactive) | 27.7 µM (inactive) | 3.27 µM (inactive) | 4.83 µM (inactive) | 12 µM (inactive) | 19.5 µM (inactive) | 13.6 µM (inactive) | > 81.8 µM (inactive) | 56.5 µM (inactive) | 7.85 µM (inactive) | 15.1 µM (inactive) | 6.5 µM (inactive) | 5.2 µM (inactive) | 35.5 µM (inactive) | 23.4 µM (inactive) |
| CN(Cc1cnc2nc(N)nc(N)c2n1)c1ccc(C(=O)NC(CCC(=O)O)C(=O)O)c2ccccc12 (centres undefined) | 0.0114 µM (active) | 0.0456 µM (active) | 0.00441 µM (active) | < 0.1 µM (active) | 0.000508 µM (active) | 0.0356 µM (active) | < 0.1 µM (active) | 0.000834 µM (active) | 0.00545 µM (active) | 0.0137 µM (active) | 0.000647 µM (active) | < 0.1 µM (active) | 0.0185 µM (active) | 0.0612 µM (active) | 0.204 µM (active) | 0.0011 µM (active) | 0.00395 µM (active) | 0.0025 µM (active) | 0.0458 µM (active) | 0.00286 µM (active) |
| O=C(O)c1ccc(Nc2cnc3ccc(C(F)(F)F)cc3n2)cc1 | 24.7 µM (inactive) | 33.5 µM (inactive) | 18 µM (inactive) | 12.6 µM (inactive) | 12.1 µM (inactive) | 32.4 µM (inactive) | 19.5 µM (inactive) | 17 µM (inactive) | 19.9 µM (inactive) | 12.4 µM (inactive) | 20.1 µM (inactive) | 18.9 µM (inactive) | 32.6 µM (inactive) | 18.8 µM (inactive) | 6.07 µM (inactive) | 28.1 µM (inactive) | 32.7 µM (inactive) | 20.4 µM (inactive) | 13.6 µM (inactive) | 13.4 µM (inactive) |
| O=c1[nH]c(=O)n(C2CC(O)C(CO)O2)c2nc3cc4ccccc4cc3nc12 (centres undefined) | 59.2 µM (inactive) | > 100 µM (inactive) | > 100 µM (inactive) | 26.5 µM (inactive) | > 100 µM (inactive) | > 100 µM (inactive) | 52.7 µM (inactive) | > 100 µM (inactive) | 61.7 µM (inactive) | 98.4 µM (inactive) | > 100 µM (inactive) | > 100 µM (inactive) | > 100 µM (inactive) | 14.5 µM (inactive) | > 100 µM (inactive) | > 100 µM (inactive) | > 100 µM (inactive) | 91.6 µM (inactive) | > 100 µM (inactive) | > 100 µM (inactive) |
| COC(=O)c1ccc2c(c1)CC1(C2)Cc2cc3c(c(C(=O)OC)c2C1)CCCC3 (centres undefined) | 61.7 µM (inactive) | 41.7 µM (inactive) | 47.8 µM (inactive) | > 100 µM (inactive) | 51.4 µM (inactive) | > 100 µM (inactive) | 64.3 µM (inactive) | 93.1 µM (inactive) | 42.7 µM (inactive) | > 100 µM (inactive) | 44.6 µM (inactive) | 50.5 µM (inactive) | > 100 µM (inactive) | – | 47.3 µM (inactive) | 96.6 µM (inactive) | 82.8 µM (inactive) | 69.5 µM (inactive) | 72.1 µM (inactive) | 83.9 µM (inactive) |
